Experimental data published in ChEMBL document CHEMBL1201862, “PubChem BioAssay data set” (2004).
Activity calls are given as the source filed them.

Key:
[1] = blockade of melanocortin 4 receptor signaling – cell-based, plate reader, cherry pick, counter-screen for LGR2 antagonist project, dose response (AID 743444); format: functional;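 also: transfected HEK 293 cells stimulated with alpha-MSH peptide; potency of inhibitors of the alpha-MSH evoked signal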
[2] = blockers of bursicon-stimulated LGR2 cAMP reporter – cell-based, HEK293, CRE-luciferase reporter, cherry pick, set 2, dose response (AID 743343); format: functional;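 also: transfected cells were stimulated with diluted bursicon conditioned medium after compound addition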
[3] = A549 cell cytotoxicity, dose response, cytotoxicity control, plate reader, cherry-pick, antagonist series (AID 743412); format: functional, cell-based
[4] = THP-1 cell cytotoxicity, dose response, cytotoxicity control for non-replicating M. tuberculosis project (AID 489025); format: functional
cells [5] = format: functional
[6] = microbe, parasite or virus in culture; format: functional; conditions: Mycobacterium tuberculosis
Cytochrome P450 3A4 = Cytochrome P450 3A4 (Homo sapiens, UniProt P08684); conditions: Potency;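 also: confirmatory qHTS run detecting inhibitors and substrates of CYP3A4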
[7] = tested on: Streptococcus sp. 'group A'; assay: Streptococcus pyogenes SK(-)GAS viability under kanamycin – luminescence, BacTiterGlo, confirmation, counter-screen for streptokinase expression inhibitor project, dose response (AID 1900); format: functional, organism-based
[8] = Luminescence Cell-Based Dose Retest to Confirm Inhibitors of Cancer Stem Cells. [Related pubchem assays (depositor defined):AID2717, AID2721]; format: functional; conditions: Homo sapiens
Streptococcus = assay: GAS UMAA2166 growth inhibition – luminescence, BacTiterGlo, counter-screen for streptokinase expression inhibitor project, dose response (AID 1915); format: functional, organism-based;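 also: potency for reduction of bacterial viability or growth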
[9] = molecular target: T1, Corticotropin-releasing factor receptor 2/Corticotropin-releasing factor-binding protein (Homo sapiens, UniProt P24387+Q13324); assay: activators of CRF receptor 2 with binding protein – uHTS hits, confirmation (AID 602473); format: functional; conditions: read-out: EC50_Mean
T1 sequence (Q13324 whole entry): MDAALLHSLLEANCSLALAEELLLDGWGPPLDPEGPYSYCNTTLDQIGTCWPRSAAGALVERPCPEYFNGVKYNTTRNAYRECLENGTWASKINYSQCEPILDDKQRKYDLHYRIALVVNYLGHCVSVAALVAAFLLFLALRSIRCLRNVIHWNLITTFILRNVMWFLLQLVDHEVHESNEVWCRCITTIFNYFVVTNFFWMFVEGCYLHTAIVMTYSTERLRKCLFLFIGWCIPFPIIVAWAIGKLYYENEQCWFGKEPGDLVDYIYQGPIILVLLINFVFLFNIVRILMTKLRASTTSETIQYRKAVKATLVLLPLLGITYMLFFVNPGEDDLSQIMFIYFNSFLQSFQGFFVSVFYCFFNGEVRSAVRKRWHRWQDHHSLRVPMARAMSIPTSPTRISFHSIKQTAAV
T1 sequence (P24387 whole entry): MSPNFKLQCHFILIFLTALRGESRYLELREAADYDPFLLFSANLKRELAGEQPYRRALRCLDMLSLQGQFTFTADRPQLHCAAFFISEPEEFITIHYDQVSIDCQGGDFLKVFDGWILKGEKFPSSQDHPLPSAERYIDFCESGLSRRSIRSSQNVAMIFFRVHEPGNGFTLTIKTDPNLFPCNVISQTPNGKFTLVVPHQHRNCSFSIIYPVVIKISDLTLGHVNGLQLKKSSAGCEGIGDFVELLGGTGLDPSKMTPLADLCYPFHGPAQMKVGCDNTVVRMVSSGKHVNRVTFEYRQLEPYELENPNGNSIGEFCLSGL

[10] = molecular target: T2, DNA repair and recombination protein RAD54-like (Homo sapiens, UniProt Q92698); assay: RAD54 Holliday junction migration blockers – biochemical, fluorescence, cherry-picked samples, dose series, confirmation (AID 651657); format: functional
T2 sequence (Q92698 whole entry): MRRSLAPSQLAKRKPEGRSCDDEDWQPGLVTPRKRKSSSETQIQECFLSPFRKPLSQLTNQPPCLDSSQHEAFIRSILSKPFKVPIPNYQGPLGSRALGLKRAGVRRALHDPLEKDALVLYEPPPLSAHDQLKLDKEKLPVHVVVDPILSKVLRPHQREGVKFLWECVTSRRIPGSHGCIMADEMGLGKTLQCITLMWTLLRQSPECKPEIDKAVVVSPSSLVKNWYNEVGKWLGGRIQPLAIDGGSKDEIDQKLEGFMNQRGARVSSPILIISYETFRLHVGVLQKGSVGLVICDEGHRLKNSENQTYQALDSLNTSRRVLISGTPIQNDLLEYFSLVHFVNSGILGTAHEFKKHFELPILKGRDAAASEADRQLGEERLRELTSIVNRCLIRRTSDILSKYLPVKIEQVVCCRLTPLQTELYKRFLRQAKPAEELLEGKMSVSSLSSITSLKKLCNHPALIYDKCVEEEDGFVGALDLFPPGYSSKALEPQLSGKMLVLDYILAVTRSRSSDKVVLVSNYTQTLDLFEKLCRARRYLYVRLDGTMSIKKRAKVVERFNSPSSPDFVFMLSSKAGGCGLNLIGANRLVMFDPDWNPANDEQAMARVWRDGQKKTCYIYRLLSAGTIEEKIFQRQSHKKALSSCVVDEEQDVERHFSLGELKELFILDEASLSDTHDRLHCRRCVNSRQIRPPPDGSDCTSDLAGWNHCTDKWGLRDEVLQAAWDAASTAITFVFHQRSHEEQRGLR

[11] = molecular target: T3, Ubiquitin-conjugating enzyme E2 N (Homo sapiens, UniProt P61088); format: functional;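 also: Dose-response confirmation in a TR-FRET assay detecting UBC13-driven polyubiquitin chain formation, inhibition measured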
T3 sequence (P61088 whole entry): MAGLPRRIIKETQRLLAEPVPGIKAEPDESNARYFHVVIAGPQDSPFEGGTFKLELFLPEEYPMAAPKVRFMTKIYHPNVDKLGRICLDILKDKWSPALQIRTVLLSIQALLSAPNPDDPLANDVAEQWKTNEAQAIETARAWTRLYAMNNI

[12] = off-target signal loss in HeLa-CEM21 co-culture – HeLa F-luc CTL cells, cherry-picked, counter-screen for HIV-1 Env fusion inhibitor project, dose response (AID 652040); format: functional, cell-based;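 also: potency for signal decrease marking cytotoxic or nonspecific inhibition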
[13] = blockers of HIV-1 envelope-mediated cell-cell fusion – cherry-pick, dose response (AID 652057); format: functional, cell-based
[14] = HIV-1 AD8 envelope cell-cell fusion blockers – cherry-pick, dose response (AID 652062); format: functional, cell-based;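 also: luciferase signal from cell-cell fusion driven by HIV-1 clade B AD8 Env; potency is for inhibitors of fusion seen as a drop in luminescence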
[15] = blockers of HIV-1 ZM109 envelope-driven cell-cell fusion – HeLa effector, CEM target cells, luciferase, cherry-pick, dose response (AID 652058); format: functional, cell-based;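 also: luciferase signal from HIV-1 Env mediated cell-cell fusion of effector and target cells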
cells [16] = format: functional, cell-based
[17] = molecular target: T4, Trace amine-associated receptor 1 (Homo sapiens, UniProt Q96RJ0); assay: Counterscreen for agonists of the human trace amine associated receptor 1 (hTAAR1): Fluorescence-based cell-based high throughput dose response assay to identify hTAAR1 agonist that also desensitize TAAR1 receptor response.; format: functional
T4 sequence (Q96RJ0 whole entry): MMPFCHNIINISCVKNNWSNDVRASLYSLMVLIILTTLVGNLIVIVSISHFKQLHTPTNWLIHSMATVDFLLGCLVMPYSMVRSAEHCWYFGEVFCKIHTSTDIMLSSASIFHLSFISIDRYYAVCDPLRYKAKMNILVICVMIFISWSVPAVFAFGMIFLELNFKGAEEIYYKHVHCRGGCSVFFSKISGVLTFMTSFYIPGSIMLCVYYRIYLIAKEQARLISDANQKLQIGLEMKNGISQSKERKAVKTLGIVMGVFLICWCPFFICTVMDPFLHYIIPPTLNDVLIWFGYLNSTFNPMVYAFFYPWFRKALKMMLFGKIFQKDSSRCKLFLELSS

[18] = molecular target: T4, Trace amine-associated receptor 1; assay: Fluorescence-based cell-based high throughput dose response assay to identify agonists of the human trace amine associated receptor 1 (TAAR1).; format: functional
cells [19] = format: functional, cell-based; remark: listed apart in the source
H4 = assay: Luminescence Cell-Based Dose Response HTS to Identify Activators of 5'UTR Stem-Loop Driven Prion Protein mRNA Translation in H4 Neuroglioblastoma Cells. [Related pubchem assays: 1829 (Project Summary), 1814 (Primary HTS)]; format: functional; conditions: Homo sapiens
[20] = Luminescence Cell-Based Dose Confirmation HTS to Identify Activators of 5'UTR Stem-Loop Driven Alpha-Synuclein mRNA Translation in H4 Neuroglioblastoma Cells. [Related pubchem assays: 1829 (Project Summary), 1814 (Primary HTS)]; format: functional
[21] = Luminescence Cell-Based Dose Response HTS to Identify Activators of Luciferase Translation or Activity in H4 […] Cells. [Related pubchem assays: 1829 (Project Summary), 1814 (Primary HTS)]; format: functional
[22] = HEK-293T cell viability reduction – luminescence, B-cell screen hits, cytotoxicity control for BCR NF-kB inhibitor project, dose response (AID 489021); format: functional, cell-based;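 also: HEK-293T cells carrying an NF-kB luciferase reporter; cells exposed to compound for about 14 hours before viability readout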

Cytochrome P450 3A4, sequence (P08684 whole entry): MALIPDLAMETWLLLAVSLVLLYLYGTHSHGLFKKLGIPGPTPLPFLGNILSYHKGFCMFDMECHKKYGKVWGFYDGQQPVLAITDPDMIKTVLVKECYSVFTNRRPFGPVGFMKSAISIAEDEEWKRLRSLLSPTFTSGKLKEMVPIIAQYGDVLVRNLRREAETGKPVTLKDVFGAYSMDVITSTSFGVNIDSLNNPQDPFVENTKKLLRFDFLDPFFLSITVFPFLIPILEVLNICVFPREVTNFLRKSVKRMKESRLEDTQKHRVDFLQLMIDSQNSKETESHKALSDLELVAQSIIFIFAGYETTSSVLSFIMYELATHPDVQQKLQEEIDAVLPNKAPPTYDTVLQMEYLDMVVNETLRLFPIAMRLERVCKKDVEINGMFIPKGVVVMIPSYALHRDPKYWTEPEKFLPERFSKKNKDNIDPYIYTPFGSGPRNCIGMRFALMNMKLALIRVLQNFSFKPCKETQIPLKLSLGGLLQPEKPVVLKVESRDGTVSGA

**Q.** Which AC50 [1] does the source give for `COCCOc1cc(NCc2ccccc2)c2ncn(C(C)C)c2c1` here?
**A.** 17.9 µM (active)

**Q.** What about the AC50 [2] of the same molecule?
**A.** 12 µM (active)

**Q.** And the AC50 [3]?
**A.** 44.3 µM (active)

**Q.** What does the source list for `CC(C)N1C(=O)NC(=O)C2(Cc3cc([N+](=O)[O-])ccc3N(C)C2c2ccccc2)C1=O` (configuration not stated)?
**A.** CC50 [4]: > 40 µM (active); IC50 (cells [5]): 27.3 µM (active); CC50 [6]: > 40 µM (active)

**Q.** Which AC50 (Cytochrome P450 3A4) does the source give for `CNC(=O)C1(C)C=CC2(CCCCC2)N1C(C)=O` (configuration not stated) here?
**A.** 15.8 µM (inconclusive)

**Q.** Which AC50 (Cytochrome P450 3A4) does the source give for `COC1=CC(=O)OC(CCc2ccccc2)C1` (configuration not stated) here?
**A.** 12.6 µM (inconclusive)

**Q.** For `O=C(Nc1nnc(-c2ccc(Cl)cc2)o1)c1nc2ccccc2s1`, which CC50 [4] is on record?
**A.** > 40 µM (active)

**Q.** What about the EC50 [7] of the same molecule?
**A.** 0.289 µM (active)

**Q.** What about the IC50 (cells [5]) of the same molecule?
**A.** 1.5 µM (active)

**Q.** And the AC50 [8]?
**A.** 3.56 µM (active)

**Q.** And the EC50 (Streptococcus)?
**A.** 0.936 µM (active)

**Q.** And the EC50 [9]?
**A.** 2.26 µM (active)

**Q.** Which results are given for `CCN(CC)CCNC(=O)c1cc2c(=O)n(C)c3ccccc3c2s1`?
**A.** AC50 [10]: 19.6 µM (active); IC50 [11]: > 20 µM (inactive)

**Q.** For `Cc1nnc(SCc2nc3ccccc3c(=O)n2-c2ccccc2Cl)n1N`, which AC50 [12] is on record?
**A.** 4.79 µM (active)

**Q.** And the AC50 [13]?
**A.** 4.45 µM (active)

**Q.** And the AC50 [14]?
**A.** 10.2 µM (active)

**Q.** What about the AC50 [15] of the same molecule?
**A.** 4.98 µM (active)

**Q.** With `Nc1c(NCCc2ccccc2)c2ccccc2oc1=O` as the molecule, how does the EC50 (cells [16]) read?
**A.** > 29.9 µM (inactive)

**Q.** What about the IC50 [17] of the same molecule?
**A.** 6.4 µM (active)

**Q.** What about the EC50 [18] of the same molecule?
**A.** 1.86 µM (active)

**Q.** And the IC50 (cells [19])?
**A.** > 29.9 µM (inactive)

**Q.** With `CCN(CC)CCCNC(=O)c1ccc2c3n(nc2c1)-c1ccc(Cl)cc1CO3` as the molecule, how does the EC50 (H4) read?
**A.** 0.334 µM (active)

**Q.** What about the EC50 [20] of the same molecule?
**A.** 101 µM (active)

**Q.** What about the EC50 [21] of the same molecule?
**A.** 3.59 µM (active)

**Q.** And the AC50 [10]?
**A.** 44.5 µM (active)

**Q.** With `Cc1cc(OC(=O)c2ccccc2Cl)cc(=O)n1C` as the molecule, how does the IC50 [22] read?
**A.** > 80 µM (inactive)

**Q.** For `COc1cc2cc[n+]3cc4c(OC)c(OC)ccc4cc3c2cc1OC`, which AC50 (Cytochrome P450 3A4) is on record?
**A.** 20 µM (inconclusive)

**Q.** Which CC50 [4] does the source give for `CCOC(=O)CNC(=O)CNC(=O)c1nn(-c2ccc(OC)c(Cl)c2)c(=O)c2ccccc12` here?
**A.** > 40 µM (active)

**Q.** And the IC50 (cells [5])?
**A.** 17.8 µM (active)
